According to patent US20250032425A1, “FIRST IN CLASS USE OF ESTROGEN RECEPTOR BETA AGONISTS IN TREATING ANGELMAN SYNDROME AND RELEVANT AUTISM SPECTRUM DISORDERS” (BROWN UNIVERSITY, priority 2023, published 2025):
Entries after “also recorded” stand apart in the source; their conditions may differ.

What was measured:
[1] = test system: iOPCs expressing Cas9 and a sgRNA targeting UBE3A; assay: EdU incorporation in iOPCs with CRISPR/Cas9 UBE3A depletion (Lenti-sgUBE3A #1-3); type: cell-based, human; details: 10 μM; any of the sgRNAs
Procedure: The sgRNAs targeting UBE3A, and negative control were obtained from Applied Biological Materials Inc. Targeting sgRNA sequences against UBE3A are: sgRNA1, […]; sgRNA2, […]; sgRNA3, […]. These sgRNAs were integrated into the backbone of the negative control pLenti-U6-sgRNA-SFFV-Cas9-2A-Puro. All constructs were packaged into lentiviruses and concentrated by Lenti-X Concentrator (Takara Bio #631231). In each experiment, 5-10 μl of concentrated virus was administered into ˜70% confluent iOPCs cultures in 6-well plates. One day post-lentiviral transduction, iOPC cultures were treated with approximately 5 μg/ml Puromycin to isolate those iOPCs which are expressing Cas9/sgRNAs. Following a day of selection, the iOPCs were then seeded on gelatin-coated coverslips placed in 24-well plates at a density of 100,000 cells per well. After another day allowed for cell stabilization, treatment with either the vehicle control (DMSO), AC-186, DPN, or LY500307 commenced at a standard concentration of 10 μM. A final 24-hour period after this treatment saw the cells exposed to […] for three hours, preparing them for subsequent immunofluorescence staining.
The EdU labeling kit from ThermoFisher Scientific (#C10637) was used to trace cell proliferation by incubating iOPCs with 2 μM EdU for three hours before fixation. Following EdU incorporation, cells were fixed in 4% paraformaldehyde, blocked with normal serum, and stained with primary antibodies, Rabbit anti-Ki67 and Mouse anti-UBE3A. These steps were conducted according to the manual of the labeling kit and also detailed immunofluorescence staining protocols described below, to ensure specific detection of the proliferation marker Ki67 and the ubiquitin-protein ligase UBE3A in the cells for subsequent imaging analysis.

[2] = test system: untreated iOPCs; assay: Baseline Ki67 expression in untreated iOPCs (normal UBE3A levels); type: cell-based, human; details: 10 μM, 24 hours
Text: FIG. 19A: Schematic illustrating the process of generating iPSC-derived oligodendrocyte lineage cells using a refined protocol from Vulakh and Yang, […] (Vulakh, G., and Yang, X. (2023). Characterizing the Neuron-Glial Interactions by the Co-cultures of Human iPSC-Derived Oligodendroglia and Neurons. Methods Mol. Biol. 2683. 10.1007/978-1-0716-3287-1_9). The human iPSCs employed in this study were the extensively characterized KOLF2.J1 control reference line, sourced from the INDI (Ramos, D. M., Skarnes, W. C., Singleton, A. B., Cookson, M. R., and Ward, M. E. (2021). Tackling neurodegenerative diseases with genomic engineering: A new stem cell initiative from the NIH. Neuron 109, 1080-1083. 10.1016/j.neuron.2021.03.022). Initially, iPSCs are converted into neural precursor cells (iNPCs, marked by Nestin) through SMAD inhibition in the first week. These iNPCs are then induced into oligodendrocyte precursor cells (iOPCs, marked by PDGFRa and A2B5) by the second week. […] FIG. 19H: Baseline effects of AC-186 on OPC proliferation analyzed by Ki67 expression in untreated iOPCs exposed to vehicle or drugs (AC-186 or DPN; 10 μM, 24 hours), with densitometric signals of immunoblotting normalized to GAPDH. […]

[3] = test system: rat OPCs with normal UBE3A levels; assay: Proliferation of rat OPCs with normal UBE3A levels; type: cell-based

Compound	number of EdU+ cells [1]	Ki67 expression, baseline [2]	effect on OPCs with normal UBE3A levels [3]
Oc1ccc(C2(c3ccccc3F)CCC(F)(F)CC2)cc1 [AC-186]	increased the number of EdU+ cells	neither AC-186 nor DPN affected; also recorded: No significant changes	neither AC-186 nor DPN affected
N#CC(Cc1ccc(O)cc1)c1ccc(O)cc1 (stereo not drawn) [DPN, diarylpropionitrile, reference compound]	increased the number of EdU+ cells	neither AC-186 nor DPN affected; also recorded: No significant changes	neither AC-186 nor DPN affected
